Experimental data reported in US20050130982A1, “Oral therapeutic or preventative drugs for pollakiuria and urinary incontinence and oral sleep inducers, containing tropolone derivatives” (Nippon Kayaku Kabushiki Kaisha, priority 2002, published 2005).
Marks after values point to notes of the source that are not given here.

Columns and labels:
[1] = test system: rhythmic bladder contraction; assay: Effect on the rhythmic bladder contraction of rats (inhibition of micturition reflex); type: in vivo, rat; settings: for Inhibition rate of the rhythmic contraction frequency of the bladder (%): anesthetized SD-IGS male rats, 120 minutes following administration; for Inhibitory activity on the frequency of the rhythmic bladder contraction (in words): rats
Experimental: The inhibitory effect on the micturition reflex was evaluated by the effect on the rhythmic bladder contraction according to the method of […] et al. (Rinshyoseiri 5, 540-547 (1975)). SD-IGS strain male rats were anesthetized by intraperitonial administration of urethane (1 g/kg). After exposing the bladder of the animal through an incision of the abdomen, a small incision was made on the top of the bladder from where a rubber balloon was inserted. The balloon was attached to a polyethylene tube connecting to a three way stopcock. The rest two ways of the stopcock were connected to a syringe for infusing water to the balloon and a transducer to measure the internal pressure of the bladder. The test animal was left for a while and then water was infused into the balloon until rhythmic contraction started. The change in the internal pressure of the bladder was recorded continuously by a polygraph. Drugs were dissolved in de-ionized water and administered through a catheter inserted in the duodenum. The effect of the drug was expressed as the inhibition ratio of the frequency of the rhythmic contraction of the bladder obtained by following formula. Inhibition rate (%)=100-{the frequency of the rhythmic contraction during 120 minutes following the administration (converted to the frequency per unit time)/the frequency of the rhythmic contraction 20 minutes immediately before the administration (converted to the frequency per unit time)×100}

[2] = Measurement of bioavailability by oral administration in rats; type: in vivo, rat; settings: for Bioavailability (%): 6.25 mg/kg oral vs intravenous, ratio of AUC
Experimental: The intravenous administration group and the oral administration group consisted of 3 rats each (6 week-old male SD-IGS strain (Japan Charles River Co.)).
Each test drug was dissolved in physiological saline or ultra-pure water and administered to the rats intravenously or orally at 6.25 mg/kg. The blood samples were collected periodically and the plasma were prepared by the routine procedures. After deproteinization, the concentration of each test drug was measured by the LC/ESI(+) SRM method (liquid chromatography/electrospray-ionization (+) selected reaction monitoring method) and the bioavailability was calculated as the ratio (percent) of AUC (area under the blood concentration-time curve) of the oral administration and AUC of the intra-venous administration.

[3] = test system: sleep-inducing symptoms (drowsiness); assay: Observation of sleep-inducing symptoms in dogs after oral administration; type: in vivo, dog; settings: male Beagle dogs
Experimental: Male dogs (Beagles) were orally administered with capsules filled with the test drug 1 and the symptoms were observed. The dosages were 3 mg/kg, 10 mg/kg, 30 mg/kg and 100 mg/kg.

[4] = target: T1, human serotonin 1A receptor (Homo sapiens, UniProt P08908); assay: Serotonin 1A antagonism activity: affinity to the human serotonin 1A receptor in transfected CHO cells; type: binding; settings: 10^−6 M test drug, 0.3 nM 8-OH-DPAT, CHO cells transfected with the human serotonin 1A receptor gene
T1 construct: expressed in transfected cells; host or cells: CHO cells
T1 sequence (P08908 1-422): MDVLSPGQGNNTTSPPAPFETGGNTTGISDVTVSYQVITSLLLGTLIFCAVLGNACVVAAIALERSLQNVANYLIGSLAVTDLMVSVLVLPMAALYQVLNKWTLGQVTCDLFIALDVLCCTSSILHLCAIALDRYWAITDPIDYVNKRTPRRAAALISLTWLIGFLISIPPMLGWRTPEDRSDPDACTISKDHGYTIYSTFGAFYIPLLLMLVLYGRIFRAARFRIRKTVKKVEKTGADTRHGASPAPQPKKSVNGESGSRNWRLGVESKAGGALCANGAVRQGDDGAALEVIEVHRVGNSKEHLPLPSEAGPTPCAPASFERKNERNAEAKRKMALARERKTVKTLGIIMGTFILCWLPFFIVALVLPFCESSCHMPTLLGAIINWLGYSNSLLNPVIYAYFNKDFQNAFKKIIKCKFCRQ
Experimental: The affinity of the test drug 1 to the human serotonin 1 A receptor was measured according to the method by Mulheron et al. (J. G. Mulheron et al., J. Biol. Chem., 269, 12954-12962 (1994)) by using the CHO cells transfected with the human serotonin 1A receptor gene.

[5] = Hygroscopic evaluation at 75% relative humidity; type: physicochemical; settings: for Weight change (mg) in 75% relative humidity: 50 mg sample; for Increase in weight (hygroscopicity, in words): 75% relative humidity for 26 days
From the text: Fifty mg of the each test sample was weighed exactly and placed in a closed container in which the relative humidity was kept at 75% and the bottom chamber was filled with saturated brine.

[6] = oral capsule, group of more than 10 mg/kg
[7] = intra-duodenal administration of 6.25 mg/kg

## CC(C)c1ccc(CN2CCN(c3ccccc3)CC2)c(=O)c(OCc2ccccc2)c1.O=C(O)/C=C/C(=O)O [Control drug, 2-benzyloxy-4-isopropyl-7-[4-phenylpiperazinomethyl]-2,4,6-cycloheptatrien-1-one 1 fumarate, reference compound]
[1]; 12.5 mg/kg intra-duodenal
  Inhibition rate of the rhythmic contraction frequency of the bladder (%): 4.81 +/− 4.09 (n = 6) %
[1]; intra-duodenal, dose of 12.5 mg/kg
  Inhibitory activity on the frequency of the rhythmic bladder contraction (in words): did not show significant activity
[2]
  Bioavailability (%): 6%

## COc1cc(C(C)C)ccc(CN2CCN(c3ncccn3)CC2)c1=O.Cl [Test drug 1, 4-isopropyl-2-methoxy-7-[4-(2-pyrimidyl)piperazinomethyl]-2,4,6-cycloheptatrien-1-one 1 hydrochloride]
[3]; oral capsule, 3 mg/kg
  Symptoms after oral administration: no abnormal symptom was recognized
[3]; [6]
  Drowsiness: drowsiness was observed
  Time to drowsiness after administration: 20 to 30 min
[3]; oral, 30 mg/kg
  Duration of drowsiness: 142 min
[3]; oral, 100 mg/kg
  Duration of drowsiness: 318 min
[3]; oral, 3-100 mg/kg
  Abnormal behavior other than drowsiness: No abnormal behavior other than drowsiness was observed
  Drug concentration in the plasma: increased dose-dependently
[1]; 3.13 mg/kg intra-duodenal
  Inhibition rate of the rhythmic contraction frequency of the bladder (%): 43.48%
[1]; 6.25 mg/kg intra-duodenal
  Inhibition rate of the rhythmic contraction frequency of the bladder (%): 48.89 +/− 5.43* %
[1]; [7]
  Inhibitory activity on the frequency of the rhythmic bladder contraction (in words): marked inhibitory activity
[4]
  Inhibition of the binding of 8-OH-DPAT to the human serotonin 1A receptor: 77%
[2]; hydrochloride, 6.25 mg/kg
  Bioavailability (%): 57%
[2]; oral 6.25 mg/kg
  Plasma concentration in rats administered orally: ~10^−6 M

## CC(C)c1ccc(CN2CCN(c3ncccn3)CC2)c(=O)c(O)c1.Cl [Test drug 2, 2-hydroxy-4-isopropyl-7-[4-(2-pyrimidyl)piperazinomethyl]-2,4,6-cycloheptatrien-1-one 1 hydrochloride]
[1]; 6.25 mg/kg intra-duodenal
  Inhibition rate of the rhythmic contraction frequency of the bladder (%): 26.84 +/− 5.33 (n = 4) %
[1]; 12.5 mg/kg intra-duodenal
  Inhibition rate of the rhythmic contraction frequency of the bladder (%): 59.08 +/− 3.18* (n = 3) %
[1]; [7]
  Inhibitory activity on the frequency of the rhythmic bladder contraction (in words): marked inhibitory activity
[2]; hydrochloride, 6.25 mg/kg
  Bioavailability (%): 31%

## COc1cc(C(C)C)ccc(CN2CCN(c3ncccn3)CC2)c1=O.O=C(O)C(O)C(O)C(=O)O.O=C(O)C(O)C(O)C(=O)O [Test sample 1, 4-isopropyl-2-methoxy-7-[4-(2-pyrimidyl)piperazinomethyl]-2,4,6-cycloheptatrien-1-one 2 DL-tartrate]
[5]; storage time 0 hours
  Weight change (mg) in 75% relative humidity: 0.0 mg
[5]; storage time 2 hours
  Weight change (mg) in 75% relative humidity: 0.2 mg
[5]; storage time 4 hours
  Weight change (mg) in 75% relative humidity: 0.2 mg
[5]; storage time 6 hours
  Weight change (mg) in 75% relative humidity: 0.1 mg
[5]; storage time 103 hours
  Weight change (mg) in 75% relative humidity: 0.1 mg
[5]; storage time 170 hours
  Weight change (mg) in 75% relative humidity: 0.1 mg
[5]; storage time 26 days
  Weight change (mg) in 75% relative humidity: 0.1 mg
[5]
  Increase in weight (hygroscopicity, in words): No substantial increase

## COc1cc(C(C)C)ccc(CN2CCN(c3ncccn3)CC2)c1=O.O=C(O)/C=C/C(=O)O [Test sample 2, 4-isopropyl-2-methoxy-7-[4-(2-pyrimidyl)piperazinomethyl]-2,4,6-cycloheptatrien-1-one 1 fumarate]
[5]; storage time 0 hours
  Weight change (mg) in 75% relative humidity: 0.0 mg
[5]; storage time 2 hours
  Weight change (mg) in 75% relative humidity: 0.3 mg
[5]; storage time 4 hours
  Weight change (mg) in 75% relative humidity: 0.4 mg
[5]; storage time 6 hours
  Weight change (mg) in 75% relative humidity: 0.1 mg
[5]; storage time 103 hours
  Weight change (mg) in 75% relative humidity: 0.1 mg
[5]; storage time 170 hours
  Weight change (mg) in 75% relative humidity: 0.2 mg
[5]; storage time 26 days
  Weight change (mg) in 75% relative humidity: 0.2 mg
[5]
  Increase in weight (hygroscopicity, in words): No substantial increase
